# Measurements: patent US20070004660A1, “Synergistic Modulation of Flt3 Kinase Using Alkylquinolines and Alkylquinazolines” (priority 2005, published 2007)
# Target: T1, wild-type FLT3 receptor (Homo sapiens, UniProt P36888)
# T1 construct: host or cells: Baf3 (murine B cell lymphoma line), stably transfected
# T1 sequence (P36888 27-993): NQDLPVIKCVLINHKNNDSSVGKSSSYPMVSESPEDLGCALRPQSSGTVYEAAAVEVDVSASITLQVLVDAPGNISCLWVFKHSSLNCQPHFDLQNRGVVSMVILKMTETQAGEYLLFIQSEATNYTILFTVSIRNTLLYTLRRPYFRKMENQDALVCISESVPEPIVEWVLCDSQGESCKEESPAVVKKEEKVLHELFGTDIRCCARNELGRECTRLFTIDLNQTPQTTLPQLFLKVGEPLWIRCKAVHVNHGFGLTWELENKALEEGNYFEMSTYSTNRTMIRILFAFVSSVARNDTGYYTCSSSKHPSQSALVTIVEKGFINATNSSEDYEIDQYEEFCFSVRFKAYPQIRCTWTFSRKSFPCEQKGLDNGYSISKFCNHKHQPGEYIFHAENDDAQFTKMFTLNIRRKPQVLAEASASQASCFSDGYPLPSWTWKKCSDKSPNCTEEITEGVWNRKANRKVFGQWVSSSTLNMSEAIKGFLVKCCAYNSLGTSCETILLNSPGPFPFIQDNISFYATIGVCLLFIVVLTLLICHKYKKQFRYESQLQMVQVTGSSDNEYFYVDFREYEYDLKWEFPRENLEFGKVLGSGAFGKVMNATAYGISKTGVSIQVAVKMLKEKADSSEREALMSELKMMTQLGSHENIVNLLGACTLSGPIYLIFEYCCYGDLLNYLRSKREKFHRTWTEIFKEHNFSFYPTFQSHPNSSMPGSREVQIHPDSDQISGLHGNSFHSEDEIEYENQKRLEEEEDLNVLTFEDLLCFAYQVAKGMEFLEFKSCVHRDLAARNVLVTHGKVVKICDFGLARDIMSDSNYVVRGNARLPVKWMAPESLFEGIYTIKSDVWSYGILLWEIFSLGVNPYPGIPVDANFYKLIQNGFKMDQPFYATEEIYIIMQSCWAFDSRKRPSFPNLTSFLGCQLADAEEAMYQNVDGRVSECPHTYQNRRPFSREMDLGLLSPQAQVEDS
# Assay: Cell-based FLT3 receptor ELISA (FLT ligand-induced phosphorylation in Baf3 FLT3 cells)
# Settings: 100 ng/mL Flt ligand, uncertainty ±20%
# In short: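 Receptor phosphotyrosine measured by sandwich ELISA (anti-FLT3 capture, HRP anti-pTyr, luminescence) in FLT3-transfected murine Baf3 cells given 1 h compound pretreatment and 10 min 100 ng/mL FLT ligand after overnight low-serum starvation; triplicates, IC50 from nonlinear regression.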
row,Structure (SMILES),IC50 [nM]
1,"CN1CCN(c2ccc3c(C4CCN(C(=O)Nc5ccc(N6CCCC6)cc5)CC4)ncnc3c2)CC1=O [Compound 184, 4-[7-(4-Methyl-3-oxo-piperazin-1-yl)-quinazolin-4-yl]-piperidine-1-carboxylic acid (4-pyrrolidin-1-yl-phenyl)-amide]",98
2,"O=C(Nc1ccc(N2CCOCC2)cc1)N1CCC(c2ncnc3cc(N4CCC[C@@H]4CO)ccc23)CC1 [Example 132, (R)-4-[7-(2-Hydroxymethyl-pyrrolidin-1-yl)-quinazolin-4-yl]-piperidine-1-carboxylic acid (4-morpholin-4-yl-phenyl)-amide]",27
3,"CN1CCN(c2ccc3c(C4CCN(C(=O)Nc5ccc(N6CCOCC6)cc5)CC4)ncnc3c2)CC1 [Example 135, 4-[7-(4-Methyl-piperazin-1-yl)-quinazolin-4-yl]-piperidine-1-carboxylic acid (4-morpholin-4-yl-phenyl)-amide]",27
4,"CC(=O)N1CCC[C@H]1COc1ccc2c(C3CCN(C(=O)Nc4ccc(N5CCCC5)cc4)CC3)ncnc2c1 [Example 162, (S)-4-[7-(1-Acetyl-pyrrolidin-2-ylmethoxy)-quinazolin-4-yl]-piperidine-1-carboxylic acid (4-pyrrolidin-1-yl-phenyl)-amide]",10
5,"O=C(Nc1ccc(N2CCCC2)cc1)N1CCC(c2ncnc3cc(N4CCOCC4)ccc23)CC1 [Compound 181, 4-(7-Morpholin-4-yl-quinazolin-4-yl)-piperidine-1-carboxylic acid (4-pyrrolidin-1-yl-phenyl)-amide]",5
6,"CN1CCN(CCOc2ccc3c(C4CCN(C(=O)Nc5ccc(N6CCOCC6)cc5)CC4)ncnc3c2)CC1 [Example 156, 4-{7-[2-(4-Methyl-piperazin-1-yl)-ethoxy]-quinazolin-4-yl}-piperidine-1-carboxylic acid (4-morpholin-4-yl-phenyl)-amide]",32
7,"O=C(Nc1ccc(N2CCCC2)cc1)N1CCC(c2ncnc3cc(N4CCNC4=O)ccc23)CC1 [Compound 178, 4-[7-(2-Oxo-imidazolidin-1-yl)-quinazolin-4-yl]-piperidine-1-carboxylic acid (4-pyrrolidin-1-yl-phenyl)-amide]",4
8,"O=C(COc1ccc2c(C3CCN(C(=O)Nc4ccc(N5CCCC5)cc4)CC3)ncnc2c1)N1CCOCC1 [Example 172, 4-[7-(2-Morpholin-4-yl-2-oxo-ethoxy)-quinazolin-4-yl]-piperidine-1-carboxylic acid (4-pyrrolidin-1-yl-phenyl)-amide]",149
9,"CN1CCN(CCOc2ccc3c(C4CCN(C(=O)Nc5ccc(N6CCCC6)cc5)CC4)ncnc3c2)CC1=O [Compound 202, 4-{7-[2-(4-Methyl-3-oxo-piperazin-1-yl)-ethoxy]-quinazolin-4-yl}-piperidine-1-carboxylic acid (4-pyrrolidin-1-yl-phenyl)-amide]",15
10,"CCN1CCN(c2ccc3c(C4CCN(C(=O)Nc5ccc(N6CCCC6)cc5)CC4)ncnc3c2)CC1 [Compound 187, 4-[7-(4-Ethyl-piperazin-1-yl)-quinazolin-4-yl]-piperidine-1-carboxylic acid (4-pyrrolidin-1-yl-phenyl)-amide]",12
11,"CN1CCN(c2ccc3c(C4CCN(C(=O)Nc5ccc(N6CCCC6)cc5)CC4)ncnc3c2)CC1 [Example 159, 4-[7-(4-Methyl-piperazin-1-yl)-quinazolin-4-yl]-piperidine-1-carboxylic acid (4-pyrrolidin-1-yl-phenyl)-amide]",6
12,"COc1cc2ncnc(C3CCN(C(=O)Nc4ccc(C5CCCCC5)cc4)CC3)c2cc1OC [Example 21, 4-(6,7-Dimethoxy-quinazolin-4-yl)-piperidine-1-carboxylic acid (4-cyclohexyl-phenyl)-amide]",2
13,"O=C(Nc1ccc(N2CCCC2)cc1)N1CCC(c2ncnc3cc(N4CCC4)ccc23)CC1 [Example 173, 4-(7-Azetidin-1-yl-quinazolin-4-yl)-piperidine-1-carboxylic acid (4-pyrrolidin-1-yl-phenyl)-amide]",2
14,"COc1cc2ncnc(C3CCN(C(=O)Nc4ccc(N5CCCCC5)cc4)CC3)c2cc1OC [Example 19, 4-(6,7-Dimethoxy-quinazolin-4-yl)-piperidine-1-carboxylic acid (4-piperidin-1-yl-phenyl)-amide]",17

# Second part, the compound after the results:
row,IC50 [nM],Structure (SMILES)
1,336,"CC(C)c1ccc(NC(=O)CN2CCC(c3ncnc4ccccc34)CC2)cc1 [Example 16, N-(4-Isopropyl-phenyl)-2-(4-quinazolin-4-yl-piperidin-1-yl)-acetamide]"
2,0.2,"O=C(Nc1ccc(N2CCCC2)cc1)N1CCC(c2ncnc3cc(OCCN4CCOC4=O)ccc23)CC1 [Example 147, 4-{7-[2-(2-Oxo-oxazolidin-3-yl)-ethoxy]-quinazolin-4-yl}-piperidine-1-carboxylic acid (4-pyrrolidin-1-yl-phenyl)-amide]"
3,31,"CCN(CC)CCCOc1ccc2c(C3CCN(C(=O)Nc4ccc(N5CCOCC5)cc4)CC3)ncnc2c1 [Example 134, 4-[7-(3-Diethylamino-propoxy)-quinazolin-4-yl]-piperidine-1-carboxylic acid (4-morpholin-4-yl-phenyl)-amide]"
4,1,"CN(C)C(=O)N1CCN(c2ccc3c(C4CCN(C(=O)Nc5ccc(N6CCOCC6)cc5)CC4)ncnc3c2)CC1 [Example 143, 4-{4-[1-(4-Morpholin-4-yl-phenylcarbamoyl)-piperidin-4-yl]-quinazolin-7-yl}-piperazine-1-carboxylic acid dimethylamide]"
5,55,"CC(C)Oc1ccc(NC(=O)N2CCC(c3ncnc4ccc(C#CCN5CCOCC5)cc34)CC2)cc1 [Example 15, 4-[6-(3-Morpholin-4-yl-prop-1-ynyl)-quinazolin-4-yl]-piperidine-1-carboxylic acid (4-isopropoxy-phenyl)-amide]"
6,4,"CC(=O)N1CC(Oc2ccc3c(C4CCN(C(=O)Nc5ccc(N6CCCC6)cc5)CC4)ncnc3c2)C1 [Example 170, 4-[7-(1-Acetyl-azetidin-3-yloxy)-quinazolin-4-yl]-piperidine-1-carboxylic acid (4-pyrrolidin-1-yl-phenyl)-amide]"
7,65,"O=C(CO)N1CCN(c2ccc3c(C4CCN(C(=O)Nc5ccc(N6CCCC6)cc5)CC4)ncnc3c2)CC1 [Compound 201, 4-{7-[4-(2-Hydroxy-acetyl)-piperazin-1-yl]-quinazolin-7-yl}-piperidine-1-carboxylic acid (4-pyrrolidin-1-yl-phenyl)-amide]"
8,4,"CN(C)C(=O)N1CCN(CCCOc2ccc3c(C4CCN(C(=O)Nc5ccc(N6CCCC6)cc5)CC4)ncnc3c2)CC1 [Example 165, 4-(3-{4-[1-(4-Pyrrolidin-1-yl-phenylcarbamoyl)-piperidin-4-yl]-quinazolin-7-yloxy}-propyl)-piperazine-1-carboxylic acid dimethylamide]"
9,104,"O=C(Nc1ccc(N2CCCC2)cc1)N1CCC(c2ncnc3cc(OC4CCOCC4)ccc23)CC1 [Compound 189, 4-[7-(Tetrahydro-pyran-4-yloxy)-quinazolin-4-yl]-piperidine-1-carboxylic acid (4-pyrrolidin-1-yl-phenyl)-amide]"
10,6,"CN1CCN(CCCOc2cc3ncnc(C4CCN(C(=O)Nc5ccc(N6CCOCC6)cc5)CC4)c3cc2F)CC1 [Compound 205, 4-{6-Fluoro-7-[3-(4-methyl-piperazin-1-yl)-propoxy]-quinazolin-4-yl}-piperidine-1-carboxylic acid (4-morpholin-4-yl-phenyl)-amide]"
11,42,"O=C(Nc1ccc(N2CCCC2)cc1)N1CCC(c2ncnc3cc(OCCN4CCC[C@H]4CO)ccc23)CC1 [Example 152, (S)-4-{7-[2-(2-Hydroxymethyl-pyrrolidin-1-yl)-ethoxy]-quinazolin-4-yl}-piperidine-1-carboxylic acid (4-pyrrolidin-1-yl-phenyl)-amide]"
12,900,"COc1cc2ncnc(C3CCN(C(=O)Nc4ccc5[nH]ccc5c4)CC3)c2cc1OC [Example 23, 4-(6,7-Dimethoxy-quinazolin-4-yl)-piperidine-1-carboxylic acid (1H-indol-5-yl)-amide]"
13,2600,"COc1cc2ncnc(C3CCN(C(=O)Nc4ccc5ncsc5c4)CC3)c2cc1OC [Example 24, 4-(6,7-Dimethoxy-quinazolin-4-yl)-piperidine-1-carboxylic acid benzothiazol-6-ylamide]"
14,6,"O=C(Nc1ccc(N2CCCC2)cc1)N1CCC(c2ncnc3cc(NCCO)ccc23)CC1 [Example 175, 4-[7-(2-Hydroxy-ethylamino)-quinazolin-4-yl]-piperidine-1-carboxylic acid (4-pyrrolidin-1-yl-phenyl)-amide]"
